The nature of the series: method code SF-HPLC, from DOI: 10.1248/cpb.43.2238.
`N#Cc1cccs1`: the logP came out at 1.34.

With `CC(=O)c1ccsc1`, the logP was determined as 1.26.

`c1ccsc1`: the logP turned out to be 1.89.

As to `CC(=O)c1cccs1`, the logP was found to be 1.27.

Compound `CCCOC(=O)c1ccsc1` registered a logP of 3.03.

Turning to `O=[N+]([O-])c1cccs1`, the logP turned out to be 1.58.

In turn, `COc1cccs1` returned a logP of 2.13.

Compound `CNC(=O)c1cccs1` displayed a logP of 0.84.

As for `Clc1ccsc1`, the lipophilicity (logP) came out at 2.55.

Take `CNC(=O)c1ccsc1`: the logP came out at 0.81.

Consider `CCCNC(=O)c1cccs1`, for which the logP came to 1.68.

`CCCNC(=O)c1ccsc1` returned a logP of 1.65.

Compound `CCNC(=O)c1ccsc1` returned a logP of 1.18.

`CCNC(=O)c1cccs1` came in with a logP of 1.18.

As to `COC(=O)c1cccs1`, the logP was 1.83.

For the compound `CCCOC(=O)c1cccs1`, the log partition coefficient (logP) was 3.01.

As to `CCOC(=O)c1ccsc1`, the logP came out at 2.32.

As usually defined, the logP is a log measure of how a compound divides between an organic and an aqueous phase.
